Measured values: patent US20160242416A1, “FUNGICIDAL ISOXAZOLINE CARBINOLS” (E I DU PONT DE NEMOURS AND COMPANY, priority 2015, published 2016)
Like-named read-outs stand apart in the source and are kept apart here.

Tests used:
[1] = tested on: Plasmopara viticola; assay: Test A: grape downy mildew, preventive spray on grape seedlings; format: in vivo; conditions: 100 = 100% disease control, 0 = no control
Text: A dash (-) indicates no test results.

[2] = tested on: Phytophthora infestans; format: in vivo; conditions: tomato late blight, 100 = 100% disease control, 0 = no control
[3] = tested on: Botrytis cinerea; assay: Test B: gray mold, preventive spray on tomato seedlings; conditions: gray mold on tomato, 100 = 100% disease control, 0 = no control
Text: (§1) General protocol for preparing test solutions for Tests A-G: the test compounds were first dissolved in acetone in an amount equal to 3% of the final volume and then suspended at the desired concentration (in ppm) in acetone and purified water (50/50 mix by volume) containing 250 ppm of the surfactant PEG400 (polyhydric alcohol esters). The resulting test suspensions were then used in Tests A-G. Compounds were sprayed at a concentration of 50 ppm (*) or 10 ppm to the point of run-off on the test plants, the equivalent of a rate of 200 g/ha or 40 g/ha, respectively.
The test solution was sprayed to the point of run-off on tomato seedlings. The following day the seedlings were inoculated with a spore suspension of Botrytis cinerea (the causal agent of gray mold on many crops) and incubated in a saturated atmosphere at 20° C. for 48 h, and moved to a growth chamber at 27° C. for 2 days, after which time visual disease ratings were made.
(§2) Compounds with an asterisks (*) were applied at a concentration of 50 ppm, otherwise test solutions were applied at 10 ppm.

[4] = tested on: Puccinia recondita f sp. tritici; assay: Test F: wheat leaf rust, preventive spray on wheat seedlings; conditions: wheat leaf rust, 100 = 100% disease control, 0 = no control
[5] = tested on: Zymoseptoria tritici; assay: Test E: wheat leaf blotch, preventive spray on wheat seedlings; conditions: wheat leaf blotch, 100 = 100% disease control, 0 = no control
[6] = tested on: Stagonospora nodorum; assay: Test D: wheat glume blotch, preventive spray on wheat seedlings; conditions: wheat glume blotch, 100 = 100% disease control, 0 = no control
Text: as §1
The test solution was sprayed to the point of run-off on wheat seedlings. The following day the seedlings were inoculated with a spore suspension of Stagonospora nodorum (also known as Septoria nodorum; the causal agent of wheat glume blotch) and incubated in a saturated atmosphere at 20° C. for 48 h, and then moved to a growth chamber at 20° C. for 6 days, after which time visual disease ratings were made.
as §2

[7] = tested on: Erysiphe graminis f sp. tritici; assay: Test G: wheat powdery mildew, preventive spray on wheat seedlings; conditions: wheat powdery mildew, 100 = 100% disease control, 0 = no control
Text: as §1
The test solution was sprayed to the point of run-off on wheat seedlings. The following day the seedlings were inoculated with a spore dust of Erysiphe graminis f sp. tritici, (the causal agent of wheat powdery mildew) and incubated in a growth chamber at 20° C. for 8 days, after which time visual disease ratings were made.
as §2

Compound: OC(Cn1cncn1)(C1=NOC(Cn2ccc(-c3ccc(Cl)cc3)n2)C1)c1ccc(Cl)cc1 (single isomer, unassigned) [Compound 66]
- Test A rating (% disease control) ([1]; 10 ppm): 3%
- Test C rating (% disease control) ([2]; 10 ppm): 0%
- Test B rating (% disease control) ([3]; 10 ppm): 0%
- Test F rating (% disease control) ([4]; 10 ppm): 98%
- Test E rating (% disease control) ([5]; 10 ppm): 1%
- Test D rating (% disease control) ([6]; 10 ppm): 0%
- Test G rating (% disease control) ([7]; 10 ppm): 97%

Compound: CC(O)(Cn1cncn1)C1=NOC(c2ccc(Cl)cc2)C1 (single isomer, unassigned) [Compound 36]
- Test A rating (% disease control) ([1]; 50 ppm (asterisk)): 11%
- Test C rating (% disease control) ([2]; 50 ppm (asterisk)): 0%
- Test B rating (% disease control) ([3]; 50 ppm (asterisk)): 0%
- Test F rating (% disease control) ([4]; 50 ppm (asterisk)): 17%
- Test E rating (% disease control) ([5]; 50 ppm (asterisk)): 0%
- Test D rating (% disease control) ([6]; 50 ppm (asterisk)): 53%
- Test G rating (% disease control) ([7]; 50 ppm (asterisk)): 99%

Compound: CC(C)C(O)(Cn1cncn1)C1=NOC(c2ccc(Cl)cc2)C1 (single isomer, unassigned) [Compound 3]
- Test A rating (% disease control) ([1]; 10 ppm): 9%
- Test C rating (% disease control) ([2]; 10 ppm): 0%
- Test B rating (% disease control) ([3]; 10 ppm): 46%
- Test F rating (% disease control) ([4]; 10 ppm): 97%
- Test E rating (% disease control) ([5]; 10 ppm): 0%
- Test D rating (% disease control) ([6]; 10 ppm): 100%
- Test G rating (% disease control) ([7]; 10 ppm): 100%
